Source: ChEMBL document CHEMBL1255475, “Mutant prevention concentrations of four carbapenems against gram-negative rods” (2010)
Converted amounts (≈) assume the structure as drawn.

Columns and labels:
[1] = test system: Pseudomonas aeruginosa; test: Ratio of mutant prevention concentration to minimum Inhibitory concentration for Pseudomonas aeruginosa P338; format: functional
[2] = test system: Acinetobacter baumannii; test: Ratio of mutant prevention concentration to minimum Inhibitory concentration for Acinetobacter baumannii A891; format: functional
[3] = test system: Pseudomonas aeruginosa; test: Ratio of mutant prevention concentration to minimum Inhibitory concentration for Pseudomonas aeruginosa P323; format: functional
[4] = test system: Pseudomonas aeruginosa; test: Ratio of mutant prevention concentration to minimum Inhibitory concentration for Pseudomonas aeruginosa P353; format: functional
[5] = test system: Klebsiella pneumoniae; test: Antibacterial activity against beta-lactamase-positive ESBL-positive Klebsiella pneumoniae E475 after 24 hrs by agar dilution method; format: functional; conditions: E475, 24 h
[6] = test system: Acinetobacter baumannii; test: Antibacterial activity against Acinetobacter baumannii A850 after 24 hrs by agar dilution method; format: functional; conditions: A850, 24 h
[7] = test system: Pseudomonas aeruginosa; test: Antibacterial activity against Pseudomonas aeruginosa P369 after 24 hrs by agar dilution method; conditions: P369, 24 h
[8] = test system: Klebsiella pneumoniae; test: Antibacterial activity against beta-lactamase-positive ESBL-negative Klebsiella pneumoniae E511 after 24 hrs by agar dilution method; format: functional; conditions: E511, 24 h

Structure (SMILES)	Ratio [1]	Ratio [2]	Ratio [3]	Ratio [4]	MIC [5]	MIC [6]	MIC [7]	MIC [8]
C[C@@H](O)[C@H]1C(=O)N2C(C(=O)O)=C(S[C@@H]3CN[C@H](CNS(N)(=O)=O)C3)[C@H](C)[C@H]12 [DORIPENEM]	16	4	8	4	–	–	–	–
C[C@@H](O)[C@H]1C(=O)N2C(C(=O)O)=C(SCCNC=N)C[C@H]12 [IMIPENEM ANHYDROUS]	–	–	–	–	4 mg/L (≈ 13.4 µM)	4 mg/L (≈ 13.4 µM)	2 mg/L (≈ 6.68 µM)	2 mg/L (≈ 6.68 µM)
